Numbering of substitutions follows the chain as printed. Several values for one entry are separate records, joined by “and”; a condition that tells them apart may be missing. Equal values may be shown once. Read-outs that look alike come from different tables or passages of the source.
Key:
C3aR S26^1.35A = target: T1, C3aR S26^1.35A (Homo sapiens, UniProt Q16581, S26A); experiment: GloSensor-based cAMP assay, C3aR mutant S26A; assay type: cell-based
T1 construct: expressed in transfected cells; host or cells: HEK293T
T1 sequence (Q16581 1-482 S26A): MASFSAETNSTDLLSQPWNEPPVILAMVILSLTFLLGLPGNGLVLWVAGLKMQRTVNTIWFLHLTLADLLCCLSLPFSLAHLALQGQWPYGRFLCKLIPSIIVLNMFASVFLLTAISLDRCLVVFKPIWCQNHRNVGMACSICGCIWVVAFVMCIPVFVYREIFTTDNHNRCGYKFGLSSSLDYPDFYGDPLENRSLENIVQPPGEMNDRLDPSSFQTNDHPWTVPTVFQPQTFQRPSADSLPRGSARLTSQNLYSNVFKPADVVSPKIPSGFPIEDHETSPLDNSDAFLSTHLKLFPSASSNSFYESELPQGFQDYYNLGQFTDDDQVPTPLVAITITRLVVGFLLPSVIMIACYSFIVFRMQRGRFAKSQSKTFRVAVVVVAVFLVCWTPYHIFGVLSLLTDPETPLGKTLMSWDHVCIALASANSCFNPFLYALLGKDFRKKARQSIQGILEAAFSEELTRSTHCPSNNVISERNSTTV
Experimental: (§1) HEK293T cells were seeded on 6-well plates (NEST) and transfected with pGlosensor™-22F plasmids (Promega) and pcDNA3.1 plasmids encoding C3aR or its mutants an with N-terminal FLAG tag. After 48 h, cells were detached with Accutase solution (Sigma-Aldrich) and washed with PBS, and resuspended in assay buffer (CO2-independent medium with 0.5 mg mL^−1D-luciferin). 100,000–200,000 cells were seeded on 96-well white bottom plates (SPL) and incubated at 37 °C for 45 min followed by 45 min incubation at room temperature. After 90 min of incubation, basal luminescence signals were recorded. In total, 25 μl of test ligand with various concentrations and 1 μM Forskolin (Sigma-Aldrich) were treated to the cells and luminescence signals were measured by Tristar 2 LB 942 multimode reader (Berthold). […] Relative luminescence unit (%) was calculated with the signal of wells treated with vehicle as 0% and the signal of wells treated with 1 μM Forskolin as 100% (DiRaddo et al, [2014]). Nonlinear regression was performed using a three-parameter logistic equation.

C3aR H81^2.63A = target: T2, C3aR H81^2.63A (Homo sapiens, UniProt Q16581, H81A); experiment: GloSensor-based cAMP assay, C3aR mutant H81A; assay type: cell-based
T2 construct: expressed in transfected cells; host or cells: HEK293T
T2 sequence (Q16581 1-482 H81A): T1 sequence (Q16581 1-482 S26A) with A26S, H81A
Experimental: as §1

C3aR I98^3.28A = target: T3, C3aR I98^3.28A (Homo sapiens, UniProt Q16581, I98A); experiment: GloSensor-based cAMP assay, C3aR mutant I98A; assay type: cell-based
T3 construct: expressed in transfected cells; host or cells: HEK293T
T3 sequence (Q16581 1-482 I98A): T1 sequence (Q16581 1-482 S26A) with A26S, I98A
Experimental: as §1

C3aR [1] = target: T4, C3aR (Homo sapiens, UniProt Q16581); design: method as in Rowley et al, 2020; conditions: inhibition of C3a-induced calcium release and mast cell degranulation; ref Rowley et al, 2020; cited from earlier work
C3aR [2] = system: C3aR; design: method as in Luo et al, 2025; conditions: HEK293 cells; ref Luo et al, 2025; cited from earlier work
C3aR [3] = target: T4, C3aR; design: method as in Luo et al, 2025; conditions: human monocyte THP-1 cells, naturally express C3aR; ref Luo et al, 2025; cited from earlier work
C3aR [4] = system: C3aR; design: method as in Mathieu et al, 2005; Rodriguez et al, 2024; conditions: blockade of calcium influx attributed to β-arrestin mediated internalization; ref Mathieu et al, 2005; Rodriguez et al, 2024; cited from earlier work
[5] = Dunnett's multiple comparisons test, WT minus mutant

T4 sequence (Q16581 whole entry): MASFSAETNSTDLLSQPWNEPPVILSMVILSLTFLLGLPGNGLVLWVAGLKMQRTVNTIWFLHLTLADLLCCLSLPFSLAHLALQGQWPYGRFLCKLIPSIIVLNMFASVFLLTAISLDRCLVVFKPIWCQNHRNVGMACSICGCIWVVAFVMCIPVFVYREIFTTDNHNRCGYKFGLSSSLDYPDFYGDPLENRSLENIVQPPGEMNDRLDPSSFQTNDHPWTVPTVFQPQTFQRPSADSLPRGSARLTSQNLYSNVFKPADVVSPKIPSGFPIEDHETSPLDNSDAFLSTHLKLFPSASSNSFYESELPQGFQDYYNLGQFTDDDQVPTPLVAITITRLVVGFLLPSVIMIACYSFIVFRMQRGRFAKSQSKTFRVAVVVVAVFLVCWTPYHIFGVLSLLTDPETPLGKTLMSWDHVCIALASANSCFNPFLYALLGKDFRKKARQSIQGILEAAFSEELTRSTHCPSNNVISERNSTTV
T4 sequence (P63096 2-354 partner limits assumed): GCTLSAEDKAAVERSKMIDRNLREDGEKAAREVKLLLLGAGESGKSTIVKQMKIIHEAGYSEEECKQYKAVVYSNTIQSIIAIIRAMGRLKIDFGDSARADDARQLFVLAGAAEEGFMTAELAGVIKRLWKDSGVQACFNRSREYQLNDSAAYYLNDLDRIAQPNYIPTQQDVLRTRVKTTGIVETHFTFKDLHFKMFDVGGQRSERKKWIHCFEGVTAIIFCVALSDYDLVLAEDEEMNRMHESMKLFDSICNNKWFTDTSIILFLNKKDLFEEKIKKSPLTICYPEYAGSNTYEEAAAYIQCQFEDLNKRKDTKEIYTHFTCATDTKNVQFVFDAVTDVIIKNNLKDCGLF
T4 sequence (P62873 2-340 partner limits assumed): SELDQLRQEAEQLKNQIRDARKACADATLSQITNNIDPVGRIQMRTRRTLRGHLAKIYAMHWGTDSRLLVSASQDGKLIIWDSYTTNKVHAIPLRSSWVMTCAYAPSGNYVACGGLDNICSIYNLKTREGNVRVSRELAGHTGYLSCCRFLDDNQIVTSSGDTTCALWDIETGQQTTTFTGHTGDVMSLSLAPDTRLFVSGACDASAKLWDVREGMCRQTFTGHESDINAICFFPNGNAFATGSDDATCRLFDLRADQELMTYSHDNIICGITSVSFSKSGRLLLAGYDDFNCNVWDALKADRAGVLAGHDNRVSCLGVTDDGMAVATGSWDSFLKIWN
T4 sequence (P59768 2-68 partner limits assumed): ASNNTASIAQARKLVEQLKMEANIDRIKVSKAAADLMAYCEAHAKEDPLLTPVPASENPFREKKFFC

Compound: Cc1cc(C(c2ccc(Cl)cc2)c2ccc(Cl)cc2)sc1C(=O)N[C@@H](CCCNC(=N)N)C(=O)O [JR14a, reference compound]
- Mean Diff. of pIC50, WT vs. S26A (C3aR S26^1.35A; [5]): -0.137
- IC50 (C3aR S26^1.35A; IC50, S26^1.35A, dose-response plot): 5.58 nM
- remaining activity at 1 µM (C3aR S26^1.35A; S26A, Log[JR14a (M)] -6, single replicates, read-out: cAMP response (% Forskolin)): 7.75%
- remaining activity at 0.1 µM (C3aR S26^1.35A; S26A, Log[JR14a (M)] -7, single replicates, read-out: cAMP response (% Forskolin)): 8.58%
- remaining activity at 0.0001 µM (C3aR S26^1.35A; S26A, Log[JR14a (M)] -10, single replicates, read-out: cAMP response (% Forskolin)): 91.9%
- remaining activity at 10 pM (C3aR S26^1.35A; S26A, Log[JR14a (M)] -11, single replicates, read-out: cAMP response (% Forskolin)): 96.7%
- ΔpIC50 ± SE of Diff. (C3aR S26^1.35A; S26^1.35A relative to WT C3aR): 0.14 ± 0.07
- IC50 (C3aR S26^1.35A; pIC50 (Replicate), S26^1.35A, individual replicates): 1.62 nM and 4.57 nM and 7.41 nM
- IC50 (C3aR S26^1.35A; pIC50 ± SEM (Mean), S26^1.35A, mean of independent experiments): 3.8 nM
- Mean Diff. of pIC50, WT vs. H81A (C3aR H81^2.63A; [5]): 0.544
- remaining activity at 0.001 µM (C3aR H81^2.63A; H81A, Log[JR14a (M)] -9, single replicates, read-out: cAMP response (% Forskolin)): 94.5%
- remaining activity at 0.0001 µM (C3aR H81^2.63A; H81A, Log[JR14a (M)] -10, single replicates, read-out: cAMP response (% Forskolin)): 95.5%
- remaining activity at 10 pM (C3aR H81^2.63A; H81A, Log[JR14a (M)] -11, single replicates, read-out: cAMP response (% Forskolin)): 93.3%
- ΔpIC50 ± SE of Diff. (C3aR H81^2.63A; H81^2.63A relative to WT C3aR): -0.54 ± 0.05
- IC50 (C3aR H81^2.63A; H81^2.63A, individual replicates, read-out: pIC50 (Replicate) (converted)): 6.31 nM
- IC50 (C3aR H81^2.63A; IC50, H81^2.63A, dose-response plot): 12.4 nM
- IC50 (C3aR H81^2.63A; pIC50 (Replicate), H81^2.63A, individual replicates): 12 nM and 16.2 nM and 18.2 nM
- Mean Diff. of pIC50, WT vs. I98A (C3aR I98^3.28A; [5]): 0.356
- remaining activity at 0.01 µM (C3aR I98^3.28A; I98A, Log[JR14a (M)] -8, single replicates, read-out: cAMP response (% Forskolin)): 49.1%
- remaining activity at 0.001 µM (C3aR I98^3.28A; I98A, Log[JR14a (M)] -9, single replicates, read-out: cAMP response (% Forskolin)): 88.6%
- remaining activity at 0.0001 µM (C3aR I98^3.28A; I98A, Log[JR14a (M)] -10, single replicates, read-out: cAMP response (% Forskolin)): 95.5%
- remaining activity at 10 pM (C3aR I98^3.28A; I98A, Log[JR14a (M)] -11, single replicates, read-out: cAMP response (% Forskolin)): 93.5%
- ΔpIC50 ± SE of Diff. (C3aR I98^3.28A; I98^3.28A relative to WT C3aR): -0.36 ± 0.02
- IC50 (C3aR I98^3.28A; IC50, I98^3.28A, dose-response plot): 9.13 nM
- IC50 (C3aR I98^3.28A; pIC50 (Replicate), I98^3.28A, individual replicates): 6.17 nM and 11.5 nM and 9.77 nM
- IC50 (C3aR I98^3.28A; pIC50 ± SEM (Mean), I98^3.28A, mean of independent experiments): 8.91 nM
- IC50 values (C3aR [1]): nanomolar range
- forskolin-induced cAMP production (C3aR [2]): inhibited forskolin-induced cAMP production in a dose-dependent manner
- forskolin-induced cAMP production (C3aR [3]): inhibited forskolin-induced cAMP production in a dose-dependent manner
- activity at C3aR (C3aR [4]): potent agonist
